The values that follow come from ChEMBL document CHEMBL4002591 (J Med Chem, 2017).

For assay [1], the target named is Poly [ADP-ribose] polymerase 2 (Homo sapiens, UniProt Q9UGN5). In words: Inhibition of recombinant human N-terminal GST-tagged PARP2 (2 to 583 residues) expressed in baculovirus infected Sf9 cells measured after 1 hr by chemiluminescence assay.
Assay [2] deals with T1, Poly [ADP-ribose] polymerase tankyrase-1 (Homo sapiens, UniProt O95271).
T1 sequence (O95271 whole entry): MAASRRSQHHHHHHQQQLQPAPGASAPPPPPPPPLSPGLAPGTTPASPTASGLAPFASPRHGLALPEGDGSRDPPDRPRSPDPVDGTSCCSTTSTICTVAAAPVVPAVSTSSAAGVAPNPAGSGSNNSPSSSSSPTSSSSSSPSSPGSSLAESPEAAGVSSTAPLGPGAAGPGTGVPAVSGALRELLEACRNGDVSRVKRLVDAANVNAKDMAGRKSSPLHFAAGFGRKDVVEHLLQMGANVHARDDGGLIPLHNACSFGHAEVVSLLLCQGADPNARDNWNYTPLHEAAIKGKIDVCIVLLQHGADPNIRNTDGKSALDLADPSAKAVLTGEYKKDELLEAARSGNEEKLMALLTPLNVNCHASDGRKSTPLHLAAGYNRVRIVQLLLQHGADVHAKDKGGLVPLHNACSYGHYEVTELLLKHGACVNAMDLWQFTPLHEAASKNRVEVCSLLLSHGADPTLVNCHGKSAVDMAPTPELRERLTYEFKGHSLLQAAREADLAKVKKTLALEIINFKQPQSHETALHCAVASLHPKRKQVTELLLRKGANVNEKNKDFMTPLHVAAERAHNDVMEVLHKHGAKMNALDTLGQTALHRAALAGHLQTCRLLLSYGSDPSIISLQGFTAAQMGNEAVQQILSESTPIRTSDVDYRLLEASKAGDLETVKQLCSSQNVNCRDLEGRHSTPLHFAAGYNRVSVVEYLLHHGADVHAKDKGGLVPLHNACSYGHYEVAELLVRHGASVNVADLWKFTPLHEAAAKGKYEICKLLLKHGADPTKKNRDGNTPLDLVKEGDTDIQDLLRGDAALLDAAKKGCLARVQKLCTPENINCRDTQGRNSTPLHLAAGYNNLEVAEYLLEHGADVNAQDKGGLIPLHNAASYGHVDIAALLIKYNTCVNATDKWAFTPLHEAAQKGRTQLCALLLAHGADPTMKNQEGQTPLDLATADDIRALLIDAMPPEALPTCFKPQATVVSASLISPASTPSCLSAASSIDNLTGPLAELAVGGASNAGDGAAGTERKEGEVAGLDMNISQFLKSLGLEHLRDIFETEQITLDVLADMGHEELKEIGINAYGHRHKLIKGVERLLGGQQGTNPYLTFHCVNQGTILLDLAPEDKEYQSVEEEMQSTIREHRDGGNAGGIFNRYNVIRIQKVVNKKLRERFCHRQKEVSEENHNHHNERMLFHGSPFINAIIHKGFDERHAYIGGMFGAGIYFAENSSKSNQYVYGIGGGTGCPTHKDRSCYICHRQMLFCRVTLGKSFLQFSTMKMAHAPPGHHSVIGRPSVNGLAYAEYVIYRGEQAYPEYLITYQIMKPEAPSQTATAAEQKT
In words: Inhibition of recombinant human N-terminal GST-tagged TNKS1 (1001 to 1327 residues) expressed in baculovirus infected sf9 cells using TACS-Sapphire as substrate measured after 30 mins by colorimetric assay.

For assay [3], the target named is Poly [ADP-ribose] polymerase 1 (Homo sapiens, UniProt P09874). As to the kind of experiment: Inhibition of full length recombinant human N-terminal GST-tagged PARP1 expressed in Baculovirus infected Sf9 cells using TACS-Sapphire as substrate measured after 1 hr by colorimetric assay.
Assay [4] addresses T2, Poly [ADP-ribose] polymerase tankyrase-2 (Homo sapiens, UniProt Q9H2K2).
T2 sequence (Q9H2K2 whole entry): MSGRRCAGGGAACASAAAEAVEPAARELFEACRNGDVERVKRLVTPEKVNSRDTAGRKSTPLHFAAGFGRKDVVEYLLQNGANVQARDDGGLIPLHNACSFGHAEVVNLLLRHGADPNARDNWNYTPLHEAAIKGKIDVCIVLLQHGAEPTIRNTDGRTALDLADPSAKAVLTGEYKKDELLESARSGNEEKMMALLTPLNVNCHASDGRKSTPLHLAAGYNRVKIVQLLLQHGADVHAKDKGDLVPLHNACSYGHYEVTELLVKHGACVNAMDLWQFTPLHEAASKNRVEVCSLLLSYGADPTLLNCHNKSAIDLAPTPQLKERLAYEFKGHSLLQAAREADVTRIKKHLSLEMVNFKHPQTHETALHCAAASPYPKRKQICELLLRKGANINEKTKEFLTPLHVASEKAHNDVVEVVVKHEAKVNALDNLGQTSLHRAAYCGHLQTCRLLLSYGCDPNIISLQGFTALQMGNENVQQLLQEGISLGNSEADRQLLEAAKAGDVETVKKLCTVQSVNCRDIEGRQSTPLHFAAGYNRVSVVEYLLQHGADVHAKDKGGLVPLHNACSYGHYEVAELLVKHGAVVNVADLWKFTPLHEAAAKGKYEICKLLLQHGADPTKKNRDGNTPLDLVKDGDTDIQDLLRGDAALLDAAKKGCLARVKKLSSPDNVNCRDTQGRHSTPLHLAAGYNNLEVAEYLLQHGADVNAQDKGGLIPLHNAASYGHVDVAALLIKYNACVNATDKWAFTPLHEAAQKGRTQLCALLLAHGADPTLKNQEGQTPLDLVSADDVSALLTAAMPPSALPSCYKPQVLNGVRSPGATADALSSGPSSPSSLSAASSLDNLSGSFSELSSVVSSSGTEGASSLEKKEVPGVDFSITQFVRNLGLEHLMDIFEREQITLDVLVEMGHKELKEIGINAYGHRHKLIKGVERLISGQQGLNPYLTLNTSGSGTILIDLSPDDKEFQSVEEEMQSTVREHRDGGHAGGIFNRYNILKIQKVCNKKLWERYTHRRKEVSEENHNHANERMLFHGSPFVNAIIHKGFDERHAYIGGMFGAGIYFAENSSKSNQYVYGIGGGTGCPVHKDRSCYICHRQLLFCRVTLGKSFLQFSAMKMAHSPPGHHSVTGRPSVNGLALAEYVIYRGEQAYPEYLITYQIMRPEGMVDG
In words: Inhibition of recombinant human N-terminal His-GST-tagged TNKS2 (849 to 1166 residues) expressed in baculovirus infected Sf9 cells using biotinylated NAD+ as substrate measured after 2 hrs.

Some results are limits rather than exact numbers.

Poly [ADP-ribose] polymerase 2, sequence (Q9UGN5 whole entry, the tested form may be a part): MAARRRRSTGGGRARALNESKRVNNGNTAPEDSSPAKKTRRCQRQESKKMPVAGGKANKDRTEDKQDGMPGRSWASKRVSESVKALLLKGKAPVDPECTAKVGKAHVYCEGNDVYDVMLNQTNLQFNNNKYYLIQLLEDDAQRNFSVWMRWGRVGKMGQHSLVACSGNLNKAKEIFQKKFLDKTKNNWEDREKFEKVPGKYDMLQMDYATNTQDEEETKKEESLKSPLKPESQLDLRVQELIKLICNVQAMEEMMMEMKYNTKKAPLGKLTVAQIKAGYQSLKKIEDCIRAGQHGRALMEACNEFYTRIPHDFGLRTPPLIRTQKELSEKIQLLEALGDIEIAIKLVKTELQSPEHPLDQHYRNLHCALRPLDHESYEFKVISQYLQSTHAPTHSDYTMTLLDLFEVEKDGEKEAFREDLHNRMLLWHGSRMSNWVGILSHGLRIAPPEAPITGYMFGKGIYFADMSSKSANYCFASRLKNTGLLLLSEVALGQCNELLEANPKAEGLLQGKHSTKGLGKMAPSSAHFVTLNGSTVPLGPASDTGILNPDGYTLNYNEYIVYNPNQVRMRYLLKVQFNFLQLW
Poly [ADP-ribose] polymerase 1, sequence (P09874 whole entry): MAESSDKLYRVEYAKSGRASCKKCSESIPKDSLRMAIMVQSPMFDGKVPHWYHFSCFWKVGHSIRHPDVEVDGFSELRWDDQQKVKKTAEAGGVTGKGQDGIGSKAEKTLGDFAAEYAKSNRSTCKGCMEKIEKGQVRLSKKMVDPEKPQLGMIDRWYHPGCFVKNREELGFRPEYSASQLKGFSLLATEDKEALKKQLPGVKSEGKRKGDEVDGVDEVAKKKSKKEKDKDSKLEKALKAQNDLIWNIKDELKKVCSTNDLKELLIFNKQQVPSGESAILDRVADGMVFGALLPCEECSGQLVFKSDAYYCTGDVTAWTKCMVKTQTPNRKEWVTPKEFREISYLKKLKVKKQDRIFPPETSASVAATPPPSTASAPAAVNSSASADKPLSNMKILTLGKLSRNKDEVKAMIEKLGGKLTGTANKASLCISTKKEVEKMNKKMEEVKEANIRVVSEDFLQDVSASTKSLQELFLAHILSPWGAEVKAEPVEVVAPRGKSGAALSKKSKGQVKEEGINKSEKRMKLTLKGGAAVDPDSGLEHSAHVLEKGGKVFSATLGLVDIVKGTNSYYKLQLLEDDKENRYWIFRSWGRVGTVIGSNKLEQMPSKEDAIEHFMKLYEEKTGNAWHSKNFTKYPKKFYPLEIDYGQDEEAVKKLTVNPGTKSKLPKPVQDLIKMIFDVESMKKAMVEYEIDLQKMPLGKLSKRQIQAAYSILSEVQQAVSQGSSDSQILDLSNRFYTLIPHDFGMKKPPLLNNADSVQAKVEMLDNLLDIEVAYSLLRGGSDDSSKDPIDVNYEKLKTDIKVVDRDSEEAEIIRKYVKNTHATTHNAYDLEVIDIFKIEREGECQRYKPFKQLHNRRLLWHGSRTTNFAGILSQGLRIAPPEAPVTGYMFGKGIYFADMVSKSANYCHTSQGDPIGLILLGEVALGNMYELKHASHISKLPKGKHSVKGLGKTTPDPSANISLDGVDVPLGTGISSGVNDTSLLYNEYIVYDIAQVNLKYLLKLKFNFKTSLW

As for `Cc1cccc2c(=O)[nH]c(CCC(=O)O)nc12`, the IC50 is 0.145 µM in assay [1]; greater than 100 µM in assay [2]; 1 µM in assay [3] (read-out: IC50); 6.61 µM in assay [3] (read-out: pIC50 (converted)); greater than 100 µM in assay [4].
For the molecule `Nc1ccc(C(=O)Nc2cccc3cccnc23)cc1`, the IC50 in assay [2] and in assay [3] (read-out: IC50) was greater than 100 µM each time.
Turning to `O=C(O)CCc1nc(O)c2ccccc2n1`, the IC50 in assay [1] was 0.125 µM; in assay [2], greater than 100 µM; in assay [3] (read-out: IC50) it was 6.7 µM; in assay [4], greater than 100 µM.
On to `O=C(Nc1cccc2cccnc12)c1ccc(N2C(=O)[C@@H]3[C@@H]4CC[C@@H](C4)[C@@H]3C2=O)cc1`, for which the IC50 in assay [1] is greater than 100 µM; in assay [2], 0.343 µM; in assay [3] (read-out: IC50), greater than 100 µM.
